Entries after “also recorded” stand apart in the source; their conditions may differ.
Biological target: T1, oxidized PTP1B (Homo sapiens, UniProt P18031)
T1 sequence (P18031 1-435): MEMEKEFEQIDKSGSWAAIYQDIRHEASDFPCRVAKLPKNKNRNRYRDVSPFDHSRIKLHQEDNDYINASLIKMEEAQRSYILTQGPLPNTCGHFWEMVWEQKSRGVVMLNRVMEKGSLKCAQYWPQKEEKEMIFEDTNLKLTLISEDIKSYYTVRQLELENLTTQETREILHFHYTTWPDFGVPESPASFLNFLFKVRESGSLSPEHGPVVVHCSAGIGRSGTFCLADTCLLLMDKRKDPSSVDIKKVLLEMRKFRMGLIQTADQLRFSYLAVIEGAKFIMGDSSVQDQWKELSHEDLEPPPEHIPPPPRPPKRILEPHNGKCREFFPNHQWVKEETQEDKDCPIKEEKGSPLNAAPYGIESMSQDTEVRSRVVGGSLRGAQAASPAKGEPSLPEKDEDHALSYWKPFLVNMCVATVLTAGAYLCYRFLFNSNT
Experiment: Adduct formation with oxidized PTP1B, mass spectroscopy analysis;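 note: detection of covalent adducts formed between each compound and oxidized PTP1B, assessed by mass spectroscopy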
Assay type: binding
Conditions: adduct seen by mass spectroscopy analysis
Source text: In further embodiments of the method, a fragment of the target protein may be used instead of the entire target protein. Certain embodiments may be directed to the binding between the compound and the target protein in the samples which may form a covalent adduct between the compound and the target protein, and the quantity of covalent adducts may be measured and compared in the samples. Any suitable assay for measuring the quantity of binding, or quantity of covalent adducts, in the two samples may be used with this method. For example, binding between the compound and the target protein may be detected using mass spectroscopy, fluorescence assays, and/or chromatography techniques. The chromatography techniques may include, but are not limited to, high-performance liquid chromatography. Further, binding between the compound and target protein may be detected using a combination of assays, for example, a combination of liquid chromatography and mass spectroscopy. The method may also be carried out in live and intact cells to determine a compound's reactivity with oxidized forms of the target protein in live cells. In certain embodiments, the potency of the compound is determined based on the degree of reduction of the quantity of adducts formed in the first sample compared with the quantity of adducts formed in the control sample, in a proportion to the quantity of compound used. In further embodiments, the potency of the compound is determined by calculating a ratio of the number of adducts formed in the first sample compared to the number of adducts formed in the control sample. A ratio of one compound can be compared directly to a ratio for another compound.
The degree of potency of the compound may be based on the degree of reduction of the quantity of adducts formed in a first sample compared with the quantity of adducts formed in the control sample in proportion to the quantity of compound used.

| Compound | REACTIVITY WITH OXIDIZED PTP1B |
| --- | --- |
| O=C1CC(=O)c2ccccc2N1 | No Adduct |
| O=C1CC(=O)c2ccccc21 | Adduct |
| COc1ccc(-c2ccccc2)cc1CN1CC(=O)CC1=O | Adduct |
| CN1C(=O)CS(=O)(=O)c2ccccc21 | No Adduct |
| O=C1CC(=O)C(Cc2ccccc2)C1 (stereo not drawn) | No adduct |
| O=C1CC(Cc2ccccc2)S(=O)(=O)C1 (stereo not drawn) | No adduct |
| CC1(C)CC(=O)CC(=O)C1 [drawing 1] | No adduct |
| O=C1CS(=O)(=O)c2ccccc21 | Adduct |
| O=C1CC(=O)N(c2cc(-c3ccccc3)ccc2O)C1 | Adduct |
| O=C1CC(c2ccccc2)S(=O)(=O)C1 (stereo not drawn) | No adduct |
| O=C1CC(=O)N(Cc2ccccc2)C1 | Adduct |
| O=C1CC(=O)C(c2ccccc2)C1 (stereo not drawn) | No adduct |
| O=C1CN(c2ccccc2)S(=O)(=O)C1 | No adduct |
| O=C1CN(Cc2ccccc2)S(=O)(=O)C1 | No adduct |
| COc1ccc(-c2ccccc2)cc1N1CC(=O)CS1(=O)=O | No adduct |
| O=C1CS(=O)(=O)c2ccccc2N1 | No Adduct |
| COc1ccc(-c2ccccc2)cc1N1CC(=O)CC1=O | Adduct |
| CN1c2ccccc2C(=O)CS1(=O)=O | Adduct |
| O=C1C/C(=C/c2ccccc2)S(=O)(=O)C1 | No adduct |
| O=C1CS(=O)(=O)Cc2ccccc21 | Adduct |
| O=C1CS(=O)(=O)N(Cc2ccccc2)c2ccccc21 | No Adduct |
| CC1(C)CC(=O)CC(=O)C1 [dimedone, reference compound] | not reactive enough to trap the sulfenic acid in PTP1B as an observable adduct; also recorded: no adduct |
| O=C1CC(=O)/C(=C\c2ccccc2)C1 | No adduct |
| O=C1CCN(c2ccccc2)C(=O)C1 | Adduct |
| CN1C(=O)CC(=O)c2ccccc21 | No Adduct |
| O=C1CS(=O)(=O)Nc2ccccc21 | No Adduct |
| O=C1CC(=O)N(Cc2cc(-c3ccccc3)ccc2O)C1 | Adduct |
| O=C1CCN(Cc2ccccc2)C(=O)C1 | Adduct |
| O=C1CC(=O)N(c2ccccc2)C1 | Adduct |

Tested on: not listed separately
Experiment: in vitro
Conditions: human, microsomes

| Compound | half-life | microsomal CLint |
| --- | --- | --- |
| CC(=O)CC(=O)Nc1ccc2ncnc(Nc3cccc(Br)c3)c2c1 [Compound 3a] | 17 min | 39.7 µL/min/mg |

Tested on: not listed separately
Experiment: Dipeptide sulfenic acid model, reaction rate
Conditions: not given

| Compound | rate constant for reaction in the dipeptide model (pseudo first-order) |
| --- | --- |
| CC1(C)CC(=O)CC(=O)C1 [dimedone, reference compound] | 1 min⁻¹ |

Biological target: T2, PTP1B (Homo sapiens, UniProt P18031)
T2 sequence (P18031 1-435): T1 sequence (P18031 1-435)
Experiment: PTP assay, 4-MUP fluorescence
Assay type: biochemical
Conditions: FIG. 20 fluorescence assay, percent activity
Experimental: (§1) Cell labeling western blot assays were performed using WT PJ3H-PTP1B purified from E. coli that was cloned into a mammalian expression plasmid. Recombinant PTP1B was expressed and purified from BL21AI cells. Recombinant proteins were labeled with respective equivalences of hydrogen peroxide (PTP1B, 10 eq; Gpx3 & GAPDH, 1.5 eq) in the presence of the indicated concentrations of sulfenic acid probes for 1 hour at room temperature with constant rocking Excess probe was removed by size-exclusion chromatography. Probe modified proteins were functionalized with a biotin reporter tag through the bioorthogonal Huisgen [3+2] Cycloaddition (“click chemistry”) then analyzed by Western blot.
The PTP assay included PTP that was prepared up to 100 nM in 32 mM HEPES, pH 7.2, 5 mM NaCl, 2.5 mM EDTA, 0.83% glycerol, 0.02% Triton X-100, and 0.002% Brij-35. The protein was dispensed to a black ckear-bottomed 96-well microplate followed by the addition of redox-based probes or DMSO and allowed to incubate for 15 minutes at 25° C. The assay was initiated with the addition of 4-methylumbelliferyl phosphate (4-MUP), and the formation of fluorescent product was measured with an excitation wavelength of 358 nm and emission wavelength of 449 nm.

| Compound | IC50 |
| --- | --- |
| C#CCCCNC(=O)c1ccc(-c2ccc(NC(=O)C3CC(=O)CC(=O)C3)cc2)cc1 [Compound 3] | ~250 µM |

Tested on: not listed separately
Experiment: Microsome stability, human liver microsomes
Conditions: not given

| Compound | half-life | microsomal CLint |
| --- | --- | --- |
| C=CC(=O)Nc1ccc2ncnc(Nc3cccc(Br)c3)c2c1 [PD168393, reference compound] | 10 min | 72.4 µL/min/mg |

Tested on: A431 and HeLa cells
Experiment: not given
Conditions: compared to DAz-2, identical conditions; cited from earlier work

| Compound | total signal and signal ratio of cell labeling |
| --- | --- |
| C#CCCCC1CCC(=O)CC1=O (stereo not drawn) [DYn-2] | greater total signal and signal ratio compared to DAz-2 |

Tested on: not listed separately
Experiment: Microsome stability, mouse liver microsomes
Assay type: in vitro ADME
Conditions: read-out: Microsome Stability Mouse t1/2

| Compound | half-life |
| --- | --- |
| CC(=O)CC(=O)Nc1ccc2ncnc(Nc3cccc(Br)c3)c2c1 [Compound 3a] | 4 min |
| C=CC(=O)Nc1ccc2ncnc(Nc3cccc(Br)c3)c2c1 [PD168393, reference compound] | 3 min |

Tested on: GPX3
Experiment: In vitro probe labeling of oxidized recombinant protein, click chemistry and Western blot
Assay type: binding
Conditions: H2O2 1.5 eq, probe 1 hour
Experimental: as §1

| Compound | preferential detection of control protein GPX3 |
| --- | --- |
| C#CCCCNC(=O)C1CC(=O)CC(=O)C1 [Compound 1] | no preferential detection |

Biological target: GAPDH (Homo sapiens, UniProt P04406)
Experiment: as above
Assay type: binding
Conditions: H2O2 1.5 eq, probe 1 hour
Experimental: as §1

GAPDH, sequence (P04406 whole entry, species assumed): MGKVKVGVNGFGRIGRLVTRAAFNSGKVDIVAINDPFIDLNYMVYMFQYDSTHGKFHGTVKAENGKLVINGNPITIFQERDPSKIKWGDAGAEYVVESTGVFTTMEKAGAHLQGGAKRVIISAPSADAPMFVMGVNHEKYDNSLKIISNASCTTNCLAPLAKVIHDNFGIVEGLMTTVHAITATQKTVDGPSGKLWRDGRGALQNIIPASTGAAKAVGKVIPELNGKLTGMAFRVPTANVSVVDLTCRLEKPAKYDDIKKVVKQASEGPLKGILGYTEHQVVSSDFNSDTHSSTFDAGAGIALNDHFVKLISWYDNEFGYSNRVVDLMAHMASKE

| Compound | preferential detection of control protein GAPDH |
| --- | --- |
| C#CCCCNC(=O)C1CC(=O)CC(=O)C1 [Compound 1] | no preferential detection |

Tested on: not listed separately
Experiment: Plasma stability in mice (20 mg/kg IP)
Assay type: in vivo
Conditions: mouse, intraperitoneal, 1 h
Experimental: Plasma stability of drug candidates may be essential for maintaining acceptable drug concentration and half-life in order to achieve desirable pharmacological effects. Compounds 1a to 5a were evaluated for plasma stability in mice with PD168393 as the reference. […] At a time point of 24 hours, Compounds 1a-5a and PD168393 were almost completely degraded.

| Compound | concentration at 1 h |
| --- | --- |
| CC(=O)CC(=O)Nc1ccc2ncnc(Nc3cccc(Br)c3)c2c1 [Compound 3a] | 29100 nM |
| C=CC(=O)Nc1ccc2ncnc(Nc3cccc(Br)c3)c2c1 [PD168393, reference compound] | 2000 nM |

Same assay, conditions: mouse, intraperitoneal, 4 h

| Compound | concentration at 4 h |
| --- | --- |
| CC(=O)CC(=O)Nc1ccc2ncnc(Nc3cccc(Br)c3)c2c1 [Compound 3a] | 1100 nM |
| C=CC(=O)Nc1ccc2ncnc(Nc3cccc(Br)c3)c2c1 [PD168393, reference compound] | 40 nM |

Same assay, conditions: mouse, intraperitoneal, 8 h

| Compound | concentration at 8 h |
| --- | --- |
| CC(=O)CC(=O)Nc1ccc2ncnc(Nc3cccc(Br)c3)c2c1 [Compound 3a] | 100 nM |
| C=CC(=O)Nc1ccc2ncnc(Nc3cccc(Br)c3)c2c1 [PD168393, reference compound] | 50 nM |

Same assay, conditions: mouse, intraperitoneal, 24 h

| Compound | concentration at 24 h |
| --- | --- |
| CC(=O)CC(=O)Nc1ccc2ncnc(Nc3cccc(Br)c3)c2c1 [Compound 3a] | < 25 nM |
| C=CC(=O)Nc1ccc2ncnc(Nc3cccc(Br)c3)c2c1 [PD168393, reference compound] | < 5 nM |

Source: US9977024B2, “Targeted covalent probes and inhibitors of proteins containing redox-sensitive cysteines” (THE SCRIPPS RESEARCH INSTITUTE, priority 2012, dated 2018)
